What was measured:
KP1004 (KPC-2) [1] = experiment: Aztreonam potentiation (MPC@4), strain KP1004; details: read-out: Aztreonam MIC
ec308 (SHV-5) [2] = experiment: Aztreonam potentiation (MPC@4), strain ec308; details: read-out: Aztreonam MIC
KP1005 (CTX-M-14) [3] = experiment: Aztreonam potentiation (MPC@4), strain KP1005; details: read-out: Aztreonam MIC
KP1009 (CTX-M-15) [4] = experiment: Aztreonam potentiation (MPC@4), strain KP1009; details: read-out: Aztreonam MIC
EC1010 (CMY-6) [5] = experiment: Aztreonam potentiation (MPC@4), strain EC1010; details: read-out: Aztreonam MIC
KP1010 (SHV-12) [6] = experiment: Aztreonam potentiation (MPC@4), strain KP1010; details: read-out: Aztreonam MIC
ECL1002 [7] = experiment: Aztreonam potentiation (MPC@4), strain ECL1002; details: read-out: Aztreonam MIC
ec302 (TEM-10) [8] = experiment: Aztreonam potentiation (MPC@4), strain ec302; details: read-out: Aztreonam MIC
[9] = system: PAM1032/KPC-2 (overexpressed MexAB-OprM); experiment: Biapenem potentiation (MPC64) in PAM1032/KPC-2; format: cell-based, Pseudomonas aeruginosa; design: PAM1032/KPC-2 Biapenem MPC64: unit not given here; details: for PAM1032/KPC-2 Biapenem MPC64: BLI potency to decrease biapenem MIC 64-fold, from 32 to 0.5 μg/ml, efflux proficient strain
Description: (§1) Efflux of BLIs from Pseudomonas aeruginosa by the MexAB-OprM efflux pump was also evaluated. The plasmid expressing the gene encoding KPC-2 was introduced into two strains of P. aeruginosa, PAM1032 and PAM1154 that overexpressed or lacked MexAB-OprM, respectively. Due to expression of KPC-2 both strains became resistant to biapenem. […] Potency of BLIs to potentiate biapenem in these strains was determined. […] The ratio of MPC64 values for each BLI in PAM1032/KPC-2 (efflux proficient) and PAM1154/KPC-2 (efflux deficient) was determined to generate the Efflux Index (EI) as shown in Table 8.

KP1054 (VIM-1) = experiment: Biapenem potentiation (MPC@1), strain KP1054; format: cell-based; details: strain KP1054 (VIM-1), biapenem alone
KP1086 (OXA-48) = experiment: Biapenem potentiation (MPC@1), strain KP1086; format: cell-based; details: strain KP1086 (OXA-48), biapenem alone
Text: (§2) Biapenem was present in the test medium at 1 Dg/mL. […] Table 4 summarizes the BLI potency of biapenem potentiation (MPC@1) for two strains overexpressing class A (KPC) and class D (OXA-48) carbapenemases. Biapenem MIC for each strain is also shown.

[10] = system: PAM1154/KPC-2 (lacked MexAB-OprM); experiment: Biapenem potentiation (MPC64) in PAM1154/KPC-2; format: cell-based, Pseudomonas aeruginosa; design: PAM1154/KPC-2 Biapenem MPC64: unit not given here; details: for PAM1154/KPC-2 Biapenem MPC64: BLI potency to decrease biapenem MIC 64-fold, from 32 to 0.5 μg/ml, efflux deficient strain
Description: as §1

KP1081 (NDM-1) = experiment: Biapenem potentiation (MPC@1), strain KP1081; format: cell-based; details: strain KP1081 (NDM-1), biapenem alone
KP1004 (KPC-2) [11] = experiment: Biapenem potentiation (MPC@1), strain KP1004; format: cell-based; details: strain KP1004 (KPC-2), biapenem alone
Text: as §2

SHV-12 = SHV-12 (Klebsiella pneumoniae, UniProt P0AD64, E235K/G234S/L31Q); experiment: Inhibition of nitrocefin cleavage by purified SHV-12; format: biochemical; details: nitrocefin reporter substrate; 10 min preincubation at room temperature; read-out: Ki (SHV-12, NCF)
Description: (§3) Ki values of inhibition of purified class A, C and D enzymes were determined spectrophotometrically using nitrocefin as reporter substrate. Purified enzymes were mixed with various concentrations of inhibitors in reaction buffer and incubated for 10 min at room temperature. Nitrocefin was added and substrate cleavage profiles were recorded at 490 nm every 10 sec for 10 min.

VIM-1 = VIM-1 (Pseudomonas aeruginosa, UniProt A0A0F7KYQ8); experiment: Inhibition of nitrocefin cleavage by purified VIM-1; format: biochemical; details: nitrocefin reporter substrate; 10 min preincubation at room temperature; read-out: Ki (VIM-1, NCF)
OXA-23 = OXA-23 (Acinetobacter baumannii, UniProt Q9L4P2); experiment: Inhibition of nitrocefin cleavage by purified OXA-23; format: biochemical; details: nitrocefin reporter substrate; 10 min preincubation at room temperature; read-out: Ki (OXA-23, NCF)
Summary of the method: (§4)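 Ki values were determined with nitrocefin as the reporter substrate. Purified enzymes were incubated with several inhibitor concentrations for 10 min at room temperature before substrate addition, and cleavage was monitored at 490 nm for 10 min.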

Pa-AmpC = Pa-AmpC (Pseudomonas aeruginosa, UniProt P24735); experiment: biochemical; details: nitrocefin reporter substrate; 10 min preincubation at room temperature; read-out: Ki (Pa-AmpC, NCF)
Description: as §3

P99 = P99 (Enterobacter cloacae, UniProt P05364); experiment: biochemical; details: nitrocefin reporter substrate; 10 min preincubation at room temperature; read-out: Ki (P99, NCF)
Description: as §3

CTX-M-14 = CTX-M-14 (Escherichia coli, UniProt Q9L5C7); experiment: Inhibition of nitrocefin cleavage by purified CTX-M-14; format: biochemical; details: nitrocefin reporter substrate; 10 min preincubation at room temperature; read-out: Ki (CTX-M-14, NCF)
Description: as §3

KPC-2 = KPC-2 (Klebsiella pneumoniae, UniProt Q9F663); experiment: Inhibition of nitrocefin cleavage by purified KPC-2; format: biochemical; details: nitrocefin reporter substrate; 10 min preincubation at room temperature; read-out: Ki (KPC-2, NCF)
Summary of the method: as §4

OXA-48 = OXA-48 (Klebsiella pneumoniae, UniProt Q6XEC0); experiment: Inhibition of nitrocefin cleavage by purified OXA-48; format: biochemical; details: nitrocefin reporter substrate; 10 min preincubation at room temperature; read-out: Ki (OXA-48, NCF)
Summary of the method: as §4

IMP-1 = IMP-1 (Serratia marcescens, UniProt P52699); experiment: Inhibition of imipenem cleavage by purified IMP-1; format: biochemical; details: imipenem reporter substrate; 37° C.; read-out: Ki (IMP-1, IMI)
Summary of the method: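 Purified enzymes preincubated with varying inhibitor concentrations for 10 min at room temperature, then imipenem added as reporter substrate. Hydrolysis followed spectrophotometrically at 294 nm every 30 s for 30 min at 37° C; Ki values derived.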

AB1053 (OXA-72) = experiment: Meropenem potentiation (MPC@8), strain AB1053; format: cell-based; details: Acinetobacter baumannii; strain AB1053 (OXA-72), meropenem alone
AB1054 (OXA-23) = experiment: Meropenem potentiation (MPC@8), strain AB1054; format: cell-based; details: Acinetobacter baumannii, read-out: Meropenem MIC
ec308 (SHV-5) [12] = experiment: Tigemonam potentiation (MPC@4), strain ec308; format: cell-based; details: strain ec308 (SHV-5), tigemonam alone
ECL1002 [13] = experiment: Tigemonam potentiation (MPC@4), strain ECL1002; format: cell-based; details: strain ECL1002, tigemonam alone
KP1010 (SHV-12) [14] = experiment: Tigemonam potentiation (MPC@4), strain KP1010; details: strain KP1010 (SHV-12), tigemonam alone
KP1005 (CTX-M-14) [15] = experiment: Tigemonam potentiation (MPC@4), strain KP1005; details: strain KP1005 (CTX-M-14), tigemonam alone
KP1009 (CTX-M-15) [16] = experiment: Tigemonam potentiation (MPC@4), strain KP1009; details: strain KP1009 (CTX-M-15), tigemonam alone
EC1010 (CMY-6) [17] = experiment: Tigemonam potentiation (MPC@4), strain EC1010; format: cell-based; details: strain EC1010 (CMY-6), tigemonam alone
ec302 (TEM-10) [18] = experiment: Tigemonam potentiation (MPC@4), strain ec302; format: cell-based; details: strain ec302 (TEM-10), tigemonam alone

Sequence of Pa-AmpC (P24735 27-397): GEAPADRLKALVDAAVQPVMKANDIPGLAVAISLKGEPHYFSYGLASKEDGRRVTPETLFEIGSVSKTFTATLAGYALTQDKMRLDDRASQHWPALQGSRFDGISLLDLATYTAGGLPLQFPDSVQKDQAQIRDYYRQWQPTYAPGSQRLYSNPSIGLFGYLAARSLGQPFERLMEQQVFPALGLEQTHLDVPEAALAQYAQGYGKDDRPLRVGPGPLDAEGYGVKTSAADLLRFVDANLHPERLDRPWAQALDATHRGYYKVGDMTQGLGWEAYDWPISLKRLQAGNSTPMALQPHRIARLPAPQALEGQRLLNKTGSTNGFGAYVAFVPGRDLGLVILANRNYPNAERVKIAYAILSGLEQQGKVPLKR
Sequence of KPC-2 (Q9F663 25-293 limits assumed): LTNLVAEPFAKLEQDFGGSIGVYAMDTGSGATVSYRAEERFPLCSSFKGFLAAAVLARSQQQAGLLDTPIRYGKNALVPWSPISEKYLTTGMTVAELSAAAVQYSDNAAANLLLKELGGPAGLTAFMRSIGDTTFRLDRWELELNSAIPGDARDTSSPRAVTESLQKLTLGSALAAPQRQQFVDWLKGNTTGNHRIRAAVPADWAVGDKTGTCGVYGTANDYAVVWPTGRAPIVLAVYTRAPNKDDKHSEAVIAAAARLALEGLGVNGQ
Sequence of OXA-48 (Q6XEC0 23-265, looked up): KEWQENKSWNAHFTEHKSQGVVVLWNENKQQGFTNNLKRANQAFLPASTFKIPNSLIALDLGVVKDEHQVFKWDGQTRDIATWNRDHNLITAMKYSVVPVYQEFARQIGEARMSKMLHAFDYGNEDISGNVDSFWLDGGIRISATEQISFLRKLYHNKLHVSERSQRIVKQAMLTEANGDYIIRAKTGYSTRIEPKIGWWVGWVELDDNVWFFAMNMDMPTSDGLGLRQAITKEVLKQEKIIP
Sequence of P99 (P05364 21-381): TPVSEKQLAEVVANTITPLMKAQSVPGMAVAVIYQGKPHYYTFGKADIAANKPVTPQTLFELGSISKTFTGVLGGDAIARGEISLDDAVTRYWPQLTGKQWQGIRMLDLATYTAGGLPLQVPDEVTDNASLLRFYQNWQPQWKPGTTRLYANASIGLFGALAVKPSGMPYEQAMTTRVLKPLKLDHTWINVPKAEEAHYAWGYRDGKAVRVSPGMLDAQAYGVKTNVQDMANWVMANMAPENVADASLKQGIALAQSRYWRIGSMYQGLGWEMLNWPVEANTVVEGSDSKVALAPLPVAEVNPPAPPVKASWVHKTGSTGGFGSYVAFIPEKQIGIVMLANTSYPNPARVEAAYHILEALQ
Sequence of CTX-M-14 (Q9L5C7 29-291, species assumed): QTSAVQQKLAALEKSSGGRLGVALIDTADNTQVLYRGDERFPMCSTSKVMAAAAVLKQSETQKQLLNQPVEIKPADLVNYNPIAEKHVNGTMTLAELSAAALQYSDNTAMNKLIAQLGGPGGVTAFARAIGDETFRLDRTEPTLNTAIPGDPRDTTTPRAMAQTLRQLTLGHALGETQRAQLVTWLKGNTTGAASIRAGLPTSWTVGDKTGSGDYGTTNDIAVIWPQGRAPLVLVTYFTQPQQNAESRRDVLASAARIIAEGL
Sequence of OXA-23 (Q9L4P2 18-273): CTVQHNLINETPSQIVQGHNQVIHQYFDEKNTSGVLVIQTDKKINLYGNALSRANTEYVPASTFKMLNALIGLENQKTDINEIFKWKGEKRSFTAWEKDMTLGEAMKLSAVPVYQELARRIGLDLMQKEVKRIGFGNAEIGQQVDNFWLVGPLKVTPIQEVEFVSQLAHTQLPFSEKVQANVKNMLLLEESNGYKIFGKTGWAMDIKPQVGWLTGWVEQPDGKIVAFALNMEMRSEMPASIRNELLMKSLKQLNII
Sequence of SHV-12 (P0AD64 22-286 L31Q/G234S/E235K): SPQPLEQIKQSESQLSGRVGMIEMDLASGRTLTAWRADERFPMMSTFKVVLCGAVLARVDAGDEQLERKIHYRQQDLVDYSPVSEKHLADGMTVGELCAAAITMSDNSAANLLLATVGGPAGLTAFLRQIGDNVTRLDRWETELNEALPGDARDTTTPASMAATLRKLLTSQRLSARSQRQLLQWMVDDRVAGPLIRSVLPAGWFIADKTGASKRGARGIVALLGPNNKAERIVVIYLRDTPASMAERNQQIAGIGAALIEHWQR
Sequence of IMP-1 (P52699 19-246, looked up, species assumed): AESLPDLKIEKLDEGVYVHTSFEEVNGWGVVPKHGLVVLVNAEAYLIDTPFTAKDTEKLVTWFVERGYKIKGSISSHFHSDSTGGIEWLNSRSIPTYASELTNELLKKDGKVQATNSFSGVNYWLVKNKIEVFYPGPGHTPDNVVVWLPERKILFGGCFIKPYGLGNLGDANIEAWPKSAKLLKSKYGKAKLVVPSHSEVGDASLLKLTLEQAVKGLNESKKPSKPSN

Question: How did the MIC (KP1004 (KPC-2) [1]) turn out when `C[C@H]1[C@H](NC(=O)/C(=N\OC(C)(C)C(=O)O)c2csc(N)n2)C(=O)N1S(=O)(=O)O` [Aztreonam] was run?
Answer: > 128 µg/mL

Question: And the MIC (ec308 (SHV-5) [2])?
Answer: > 128 µg/mL

Question: What about the MIC (KP1005 (CTX-M-14) [3]) of the same compound?
Answer: > 128 µg/mL

Question: What about the MIC (KP1009 (CTX-M-15) [4]) of the same compound?
Answer: > 128 µg/mL

Question: And the MIC (EC1010 (CMY-6) [5])?
Answer: > 128 µg/mL

Question: And the MIC (KP1010 (SHV-12) [6])?
Answer: 64 µg/mL

Question: What about the MIC (ECL1002 [7]) of the same compound?
Answer: 64 µg/mL

Question: And the MIC (ec302 (TEM-10) [8])?
Answer: 128 µg/mL

Question: Which MIC ([9]; Pseudomonas aeruginosa, PAM1032/KPC-2, biapenem alone) does the source give for `C[C@@H](O)[C@H]1C(=O)N2C(C(=O)[O-])=C(SC3Cn4cnc[n+]4C3)[C@H](C)[C@H]12` (stereo partly drawn) [Biapenem] here?
Answer: 32 µg/mL

Question: What about the MIC (KP1054 (VIM-1)) of the same compound?
Answer: 16 µg/mL

Question: What about the MIC (KP1086 (OXA-48)) of the same compound?
Answer: 16 µg/mL

Question: And the MIC ([10]; Pseudomonas aeruginosa, PAM1154/KPC-2, biapenem alone)?
Answer: 32 µg/mL

Question: What about the MIC (KP1081 (NDM-1)) of the same compound?
Answer: 16 µg/mL

Question: And the MIC (KP1004 (KPC-2) [11])?
Answer: 32 µg/mL

Question: Which results are given for `O=C(O)c1c(F)ccc2c1OB(O)[C@H]1C[C@@H]21` [Compound 12, (1aS,7bR)-5-fluoro-2-hydroxy-1a,7b-dihydro-1H-cyclopropa[c][1,2]benzoxaborinine-4-carboxylic acid]?
Answer: Ki (SHV-12): < 100 nM; PAM1032/KPC-2 Biapenem MPC64 [9]: 2.5; Ki (VIM-1): > 1000 nM; Ki (OXA-23): < 100 nM; Ki (Pa-AmpC): 100 to 1000 nM; Ki (P99): < 100 nM; Ki (CTX-M-14): < 100 nM; PAM1154/KPC-2 Biapenem MPC64 [10]: 1.25; Ki (KPC-2): < 100 nM; Ki (OXA-48): < 100 nM; Ki (IMP-1): > 1000 nM

Question: `O=C(O)c1c(F)ccc2c1OB(O)[C@@H]1C[C@H]21` [Compound 13, (1aR,7bS)-5-fluoro-2-hydroxy-1a,7b-dihydro-1H-cyclopropa[c][1,2]benzoxaborinine-4-carboxylic acid] was tested. Which Ki (SHV-12) did it give?
Answer: < 100 nM

Question: What about the “PAM1032/KPC-2 Biapenem MPC64” value [9] of the same compound?
Answer: 2.5

Question: What about the Ki (VIM-1) of the same compound?
Answer: < 100 nM

Question: And the Ki (OXA-23)?
Answer: < 100 nM

Question: What about the Ki (Pa-AmpC) of the same compound?
Answer: < 100 nM

Question: What about the Ki (P99) of the same compound?
Answer: < 100 nM

Question: What about the Ki (CTX-M-14) of the same compound?
Answer: < 100 nM

Question: And the “PAM1154/KPC-2 Biapenem MPC64” value [10]?
Answer: 2.5

Question: What about the Ki (KPC-2) of the same compound?
Answer: < 100 nM

Question: And the Ki (OXA-48)?
Answer: < 100 nM

Question: What about the Ki (IMP-1) of the same compound?
Answer: 100 to 1000 nM

Question: With `C[C@@H](O)[C@H]1C(=O)N2C(C(=O)O)=C(S[C@@H]3CN[C@H](C(=O)N(C)C)C3)[C@H](C)[C@H]12` [Meropenem] as the compound, how does the MIC (AB1053 (OXA-72)) read?
Answer: > 64 µg/mL

Question: What about the MIC (AB1054 (OXA-23)) of the same compound?
Answer: 32 µg/mL

Question: For `CC1(C)[C@H](NC(=O)/C(=N\OCC(=O)O)c2csc(N)n2)C(=O)N1OS(=O)(=O)O` [Tigemonam], which “Tigemonam MIC” value (ec308 (SHV-5) [12]) is on record?
Answer: >64 µg/mL

Question: And the “Tigemonam MIC” value (ECL1002 [13])?
Answer: 32 µg/mL

Question: What about the “Tigemonam MIC” value (KP1010 (SHV-12) [14]) of the same compound?
Answer: >64 µg/mL

Question: And the “Tigemonam MIC” value (KP1005 (CTX-M-14) [15])?
Answer: >64 µg/mL

Question: What about the “Tigemonam MIC” value (KP1009 (CTX-M-15) [16]) of the same compound?
Answer: >64 µg/mL

Question: And the “Tigemonam MIC” value (EC1010 (CMY-6) [17])?
Answer: 16 µg/mL

Question: And the “Tigemonam MIC” value (ec302 (TEM-10) [18])?
Answer: >64 µg/mL

Source: patent US11999759B2, “Boronic acid derivatives and therapeutic uses thereof” (Qpex Biopharma, Inc., priority 2016, dated 2024)
